Where no end group is shown, it is not given here. The star is where a group is joined. dabcyl = dabcyl quencher on the Lys side chain, CN(C)c1ccc(/N=N/c2ccc(C(=O)*)cc2)cc1; K(FAM) = lysine with FAM attached to its side chain
Columns and labels:
[1] = Fluorescence (FRET) titration with magnesium(II) ions; assay type: binding
[2] = Fluorescence (FRET) titration with calcium(II) ions; assay type: binding
[3] = Fluorescence (FRET) titration with gadolinium(III) ions; assay type: binding; conditions: for Gd^+3 binding, effect on FRET activity: 10 μM peptide, pH dependence
[4] = Fluorescence (FRET) titration with zinc(II) ions; assay type: binding; conditions: for effect of the mutation on zinc binding: mutant versus P1P
[5] = Fluorescence (FRET) titration with copper(II) ions; assay type: binding; conditions: for effect of the mutation on copper binding: mutant versus P1P
[6] = 1H longitudinal relaxivity (NMRD); assay type: physicochemical; conditions: salt only, 50 mM NEM, pH=7.0, 20 MHz
Method: Smart contrast agents with larger relaxivity values imply lower MRI detection limits for the target species and are advantageous over contrast agents with lower relaxivity values.
The incubation was conducted in the dark, at room temperature, and lasted for 3 hours. The longitudinal relaxivity was measured at field strengths between 0.01 MHz to 20 MHz. […] The underlining mechanisms responsible for the observed behavior have not been well characterized to date, but likely contain contributions from several factors including gadolinium-copper ion exchange, alterations in peptide solubility, peptide structural rearrangements, remaining synthesis impurities, and buffer interactions with both copper and gadolinium ions.

[7] = tested on: Aβ accumulation; conditions: transgenic mice; cited from earlier work
[8] = tested on: endogenous β-amyloid peptides; conditions: cerebrospinal fluid; read-out: EC50 for conversion of endogenous β-amyloid peptides into insoluble aggregates; cited from earlier work

Molecule | binding with Mg^+2 [1] | binding with Ca^+2 [2] | Gd^+3 binding, effect on FRET activity [3] | effect of the mutation on zinc binding [4] | effect of the mutation on copper binding [5] | other results
K(FAM)PHGGGAGQK(dabcyl) ({K(FAM)}-PHGGGAGQK(dabcyl)) [P16, mutant version of P1P, tryptophan to alanine] | No binding | No binding | marked increase in Gd^+3 binding with increasing pH | significant effect | significant effect | 
O=S(=O)([O-])[O-].[Cu+2] [CuSO4] |  |  |  |  |  | relaxivity [6]: 0.4 mM⁻¹ s⁻¹
K(FAM)PAGGGWGQK(dabcyl) ({K(FAM)}-PAGGGWGQK(dabcyl)) [P17, mutant version of P1P, histidine to alanine] | No binding | No binding | marked increase in Gd^+3 binding with increasing pH | most critical | most critical | 
K(FAM)PHGGGWGAK(dabcyl) ({K(FAM)}-PHGGGWGAK(dabcyl)) [P18, mutant version of P1P, glutamine to alanine] | No binding | No binding | marked increase in Gd^+3 binding with increasing pH | either had no effect, or even increased the peptide binding strength | either had no effect, or even increased the peptide binding strength | effect of the mutation on affinity of Gd^+3 ions ([3]; versus base P1P peptide): reduce the affinity; effect of the mutation on binding affinity for zinc ([4]; pH ≦7): little effect; effect of the mutation on binding activity with zinc ([4]; pH=7.6): increase the binding activity; effect of the mutation on binding affinity for copper ([5]; pH ≦7): little effect; effect of the mutation on binding activity with copper ([5]; pH=7.6): increase the binding activity
Oc1c(I)cc(Cl)c2cccnc12 [clioquinol] |  |  |  |  |  | inhibition of Aβ accumulation [7]: significant inhibition of Aβ accumulation
[Zn+2] [zinc ions] |  |  |  |  |  | EC50 [8]: 120 to 140 µM
[Cl][Gd]([Cl])[Cl] [GdCl3] |  |  |  |  |  | relaxivity [6]: 5.1 mM⁻¹ s⁻¹

Reference: patent US20100129290A1, “SMART CONTRAST AGENT AND DETECTION METHOD FOR DETECTING TRANSITION METAL IONS” (I.S.T. corporation, priority 2008, published 2010)
